Measurements published in ChEMBL document CHEMBL5233239, “Matrix metalloproteinase-9 (MMP-9) and its inhibitors in cancer: A minireview” (Eur J Med Chem, 2020).
pIC50: −log10 of the molar value. One block for each molecule: values may come before it.

Key:
[1] = target: Stromelysin-1 (Homo sapiens, UniProt P08254); experiment: Inhibition of recombinant human MMP3 expressed in Escherichia coli BL21 (DE3) using [3H]transferrin as substrate incubated for 3 hrs by scintillation counter analysis
[2] = target: T1, Interstitial collagenase (Homo sapiens, UniProt P03956); experiment: Inhibition of recombinant human MMP1 expressed in Escherichia coli BL21 (DE3) using Mca-Pro-Leu-Gly-Leu-Dpa-Ala-Arg-NH2 as substrate incubated for 20 to 30 mins by fluorescence assay
T1 sequence (P03956 whole entry): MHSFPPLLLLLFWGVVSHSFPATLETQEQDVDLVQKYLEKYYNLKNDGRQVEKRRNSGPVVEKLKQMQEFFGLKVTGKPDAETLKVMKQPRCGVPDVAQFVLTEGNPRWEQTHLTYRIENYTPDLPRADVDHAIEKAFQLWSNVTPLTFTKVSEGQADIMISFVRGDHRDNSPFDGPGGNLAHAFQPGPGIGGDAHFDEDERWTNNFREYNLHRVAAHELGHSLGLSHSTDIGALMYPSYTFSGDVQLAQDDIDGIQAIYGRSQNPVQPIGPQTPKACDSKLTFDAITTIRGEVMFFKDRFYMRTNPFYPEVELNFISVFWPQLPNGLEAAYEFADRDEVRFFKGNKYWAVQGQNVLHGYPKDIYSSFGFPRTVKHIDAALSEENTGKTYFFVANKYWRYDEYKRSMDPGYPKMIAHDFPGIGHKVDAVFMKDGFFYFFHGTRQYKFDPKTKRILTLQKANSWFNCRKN

[3] = target: T2, Matrilysin (Homo sapiens, UniProt P09237); experiment: Inhibition of recombinant human MMP7 using […] as substrate incubated for 20 to 30 mins by fluorescence microplate reader analysis
T2 sequence (P09237 whole entry): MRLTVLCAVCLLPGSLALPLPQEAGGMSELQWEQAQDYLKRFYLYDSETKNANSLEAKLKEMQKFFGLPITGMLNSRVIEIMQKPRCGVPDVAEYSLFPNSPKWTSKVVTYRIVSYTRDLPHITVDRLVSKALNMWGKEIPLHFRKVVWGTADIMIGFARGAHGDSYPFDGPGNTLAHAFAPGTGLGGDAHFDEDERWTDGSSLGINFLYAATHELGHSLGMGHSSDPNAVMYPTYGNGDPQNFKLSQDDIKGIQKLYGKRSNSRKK

[4] = target: T3, Matrix metalloproteinase-9 (Homo sapiens, UniProt P14780); experiment: Inhibition of recombinant human MMP9 using […] as substrate incubated for 20 to 30 mins by fluorescence microplate reader analysis
T3 sequence (P14780 whole entry): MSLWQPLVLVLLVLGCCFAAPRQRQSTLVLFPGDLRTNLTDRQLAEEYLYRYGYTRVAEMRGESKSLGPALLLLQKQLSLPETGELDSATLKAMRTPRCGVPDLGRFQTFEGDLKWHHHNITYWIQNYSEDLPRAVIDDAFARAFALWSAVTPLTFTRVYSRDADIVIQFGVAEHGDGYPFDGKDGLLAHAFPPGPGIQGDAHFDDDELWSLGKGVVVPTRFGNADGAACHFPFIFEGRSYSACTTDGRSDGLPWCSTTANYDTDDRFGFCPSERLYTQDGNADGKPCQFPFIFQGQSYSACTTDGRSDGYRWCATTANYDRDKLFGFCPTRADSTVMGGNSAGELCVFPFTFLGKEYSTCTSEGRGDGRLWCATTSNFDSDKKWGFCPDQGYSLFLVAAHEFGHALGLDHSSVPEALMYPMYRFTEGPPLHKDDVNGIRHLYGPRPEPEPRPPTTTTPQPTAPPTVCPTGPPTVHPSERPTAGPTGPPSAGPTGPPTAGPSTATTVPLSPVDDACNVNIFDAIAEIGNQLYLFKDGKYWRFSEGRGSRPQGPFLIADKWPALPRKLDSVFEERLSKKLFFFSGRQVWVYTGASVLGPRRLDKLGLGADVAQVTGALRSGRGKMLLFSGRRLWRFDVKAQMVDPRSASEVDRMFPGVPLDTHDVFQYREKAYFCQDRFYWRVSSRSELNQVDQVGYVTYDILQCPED

[5] = target: T4, Collagenase 3 (Homo sapiens, UniProt P45452); experiment: Inhibition of recombinant human MMP13 using […] as substrate incubated for 20 to 30 mins by fluorescence microplate reader analysis
[6] = target: T1, Interstitial collagenase; experiment: Inhibition of MMP-1 (unknown origin)
[7] = target: T4, Collagenase 3
Description: Inhibition of MMP-13 (unknown origin)

[8] = target: Disintegrin and metalloproteinase domain-containing protein 17 (Homo sapiens, UniProt P78536); experiment: Inhibition of TACE (unknown origin)
Disintegrin and metalloproteinase domain-containing protein 17, sequence (P78536 whole entry, the tested form may be a part): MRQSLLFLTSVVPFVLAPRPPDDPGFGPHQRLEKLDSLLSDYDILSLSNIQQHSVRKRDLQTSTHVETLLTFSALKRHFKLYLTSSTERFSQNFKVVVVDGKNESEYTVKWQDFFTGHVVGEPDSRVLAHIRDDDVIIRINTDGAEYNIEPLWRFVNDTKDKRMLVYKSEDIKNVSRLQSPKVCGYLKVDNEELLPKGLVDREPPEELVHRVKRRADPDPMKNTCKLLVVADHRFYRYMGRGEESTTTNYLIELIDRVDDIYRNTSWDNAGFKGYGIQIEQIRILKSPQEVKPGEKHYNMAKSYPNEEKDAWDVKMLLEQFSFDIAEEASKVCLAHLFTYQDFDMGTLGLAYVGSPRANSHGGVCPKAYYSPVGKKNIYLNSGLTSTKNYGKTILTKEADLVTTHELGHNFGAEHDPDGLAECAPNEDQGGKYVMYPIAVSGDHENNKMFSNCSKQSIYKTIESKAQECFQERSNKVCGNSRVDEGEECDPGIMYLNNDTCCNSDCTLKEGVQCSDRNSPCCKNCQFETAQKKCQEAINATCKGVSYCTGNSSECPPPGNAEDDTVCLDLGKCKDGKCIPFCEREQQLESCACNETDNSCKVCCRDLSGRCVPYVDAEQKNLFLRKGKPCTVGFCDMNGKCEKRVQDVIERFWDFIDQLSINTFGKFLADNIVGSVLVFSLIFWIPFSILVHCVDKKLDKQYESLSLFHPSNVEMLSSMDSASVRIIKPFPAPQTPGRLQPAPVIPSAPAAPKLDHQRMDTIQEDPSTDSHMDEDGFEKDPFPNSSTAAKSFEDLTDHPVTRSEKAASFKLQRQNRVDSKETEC

[9] = target: T3, Matrix metalloproteinase-9; experiment: Inhibition of MMP-9 (unknown origin)
[10] = target: T5, 72 kDa type IV collagenase (Homo sapiens, UniProt P08253); experiment: Inhibition of recombinant human full length MMP2 using […] as substrate incubated for 20 to 30 mins by fluorescence microplate reader analysis
T5 sequence (P08253 whole entry): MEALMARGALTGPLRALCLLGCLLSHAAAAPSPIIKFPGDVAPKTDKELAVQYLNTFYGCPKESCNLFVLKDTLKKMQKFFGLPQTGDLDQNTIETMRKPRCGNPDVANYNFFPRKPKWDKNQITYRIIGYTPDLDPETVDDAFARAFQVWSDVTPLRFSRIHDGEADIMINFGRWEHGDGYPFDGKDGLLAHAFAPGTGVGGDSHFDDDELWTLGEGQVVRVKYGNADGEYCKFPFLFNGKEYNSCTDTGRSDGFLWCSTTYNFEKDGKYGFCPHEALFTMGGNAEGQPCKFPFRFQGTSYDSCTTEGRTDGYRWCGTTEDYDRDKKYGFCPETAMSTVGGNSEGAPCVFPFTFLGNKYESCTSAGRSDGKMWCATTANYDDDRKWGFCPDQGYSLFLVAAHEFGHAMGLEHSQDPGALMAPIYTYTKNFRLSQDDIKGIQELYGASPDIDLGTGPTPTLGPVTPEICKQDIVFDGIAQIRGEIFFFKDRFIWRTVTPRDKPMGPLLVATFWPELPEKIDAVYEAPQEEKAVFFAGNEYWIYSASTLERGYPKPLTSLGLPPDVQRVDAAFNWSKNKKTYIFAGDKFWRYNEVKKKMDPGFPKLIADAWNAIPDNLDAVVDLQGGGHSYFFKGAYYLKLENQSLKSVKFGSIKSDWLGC

[11] = target: Neutrophil collagenase (Homo sapiens, UniProt P22894); experiment: Inhibition of recombinant human MMP8 using […] as substrate incubated for 20 to 30 mins by fluorescence microplate reader analysis
Neutrophil collagenase, sequence (P22894 whole entry): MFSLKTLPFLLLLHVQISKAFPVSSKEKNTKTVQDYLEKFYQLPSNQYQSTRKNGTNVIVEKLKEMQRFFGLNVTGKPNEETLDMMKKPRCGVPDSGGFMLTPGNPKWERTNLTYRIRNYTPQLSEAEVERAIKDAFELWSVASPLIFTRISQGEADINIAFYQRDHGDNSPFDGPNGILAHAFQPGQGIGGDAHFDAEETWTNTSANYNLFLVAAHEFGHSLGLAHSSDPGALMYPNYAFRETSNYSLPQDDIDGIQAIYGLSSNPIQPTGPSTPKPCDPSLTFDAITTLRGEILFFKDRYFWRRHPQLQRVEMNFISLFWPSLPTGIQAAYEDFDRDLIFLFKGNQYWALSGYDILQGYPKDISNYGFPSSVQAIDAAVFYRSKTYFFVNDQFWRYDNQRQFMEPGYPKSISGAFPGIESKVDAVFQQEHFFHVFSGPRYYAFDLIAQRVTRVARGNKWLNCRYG

[12] = target: T3, Matrix metalloproteinase-9; experiment: Inhibition of MMP-9 (unknown origin) assessed as inhibition constant using Mca-Pro-Leu-Gly-Dpa-Ala-Arg-NH2 substrate preincubated for 1 hr followed by substrate addition and measured after 1 hr by fluorimetric analysis
[13] = target: T5, 72 kDa type IV collagenase; experiment: Inhibition of MMP-2 (unknown origin) assessed as inhibition constant using Mca-Pro-Leu-Gly-Dpa-Ala-Arg-NH2 substrate preincubated for 1 hr followed by substrate addition and measured after 1 hr by fluorimetric analysis
[14] = target: T3, Matrix metalloproteinase-9; experiment: Inhibition of human MMP9 incubated for 1 hrs followed by chromogenic substrate addition and measured after 30 mins by microplate photometer analysis
[15] = target: T5, 72 kDa type IV collagenase; experiment: Inhibition of human MMP2 incubated for 1 hrs followed by chromogenic substrate addition and measured after 30 mins by microplate photometer analysis
[16] = Cmax in mouse plasma at 200 mg/kg, po by HPLC analysis; format: ADME, organism-based; set-up: dose 200 mg/kg, route po
[17] = target: T3, Matrix metalloproteinase-9; experiment: Inhibition of MMP-9 (unknown origin) using Ac-Pro-Leu-Gly-SCH(CH2 CH(CH3)2)CO-Leu-Gly-OCH2CH3 as substrate preincubated of 0.5 hrs followed by substrate addition and measured after 3 hrs by fluorescence analysis

Stromelysin-1, sequence (P08254 whole entry): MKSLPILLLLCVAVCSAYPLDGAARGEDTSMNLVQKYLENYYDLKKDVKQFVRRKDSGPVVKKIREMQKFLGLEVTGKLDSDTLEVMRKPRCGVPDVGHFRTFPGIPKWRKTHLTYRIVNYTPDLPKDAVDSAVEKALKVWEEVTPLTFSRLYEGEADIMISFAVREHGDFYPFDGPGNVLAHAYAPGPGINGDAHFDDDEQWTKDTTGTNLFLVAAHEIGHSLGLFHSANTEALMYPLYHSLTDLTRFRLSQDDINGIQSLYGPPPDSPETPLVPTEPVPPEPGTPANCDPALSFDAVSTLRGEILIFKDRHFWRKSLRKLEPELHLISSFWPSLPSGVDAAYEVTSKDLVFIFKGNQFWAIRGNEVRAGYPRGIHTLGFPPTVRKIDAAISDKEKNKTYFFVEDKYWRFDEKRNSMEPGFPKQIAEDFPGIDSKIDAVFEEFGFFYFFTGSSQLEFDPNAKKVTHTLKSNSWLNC

pIC50 [1]: 6.74 | pIC50 [2]: 6.03 | pIC50 [3]: 4.56 | pIC50 [4]: 7.49 | pIC50 [5]: 7.24
SMILES: COc1ccc(S(=O)(=O)N2CCN(c3cccnc3)CC2C(=O)NO)cc1 (configuration not stated)

pIC50 [6]: 6.67 | pIC50 [7]: 7.96 | pIC50 [8]: 6.61 | pIC50 [9]: 8.52
SMILES: COc1ccc(S(=O)(=O)N(C)c2c(C)cc(Cc3ccc(CN(C)C)cc3)cc2C(=O)NO)cc1

pIC50 [6]: 5.51 | pIC50 [7]: 7.80 | pIC50 [8]: 6.40 | pIC50 [9]: 8.05
SMILES: COc1ccc(S(=O)(=O)N(Cc2ccccc2)c2c(C(=O)NO)ccc3c(C(C)(C)C)cccc23)cc1

pIC50 [7]: 8.70 | pIC50 [9]: 9.00
SMILES: COc1ccc(S(=O)(=O)N(Cc2ccccn2)c2c(C)cc(-c3cccc(C(F)(F)F)c3)cc2C(=O)NO)cc1

pIC50 [6]: 6.22 | pIC50 [7]: 7.85 | pIC50 [8]: 6.76 | pIC50 [9]: 8.30
SMILES: COc1ccc(S(=O)(=O)N(C)c2c(CN3CCOCC3)cc(C)cc2C(=O)NO)cc1

pIC50 [10]: 8.85 | pIC50 [1]: 8.48 | pIC50 [2]: 8.62 | pIC50 [3]: 7.74 | pIC50 [11]: 8.72 | pIC50 [4]: 9.30
SMILES: COc1ccc(S(=O)(=O)N2CCCC(C)(C)CC2C(=O)NO)cc1 (configuration not stated)

pIC50 [9]: 9.00
SMILES: CNC(=O)[C@H](Cc1ccccc1)NC(=O)[C@H](CC(C)C)[C@H](CSc1cccs1)C(=O)NO [BATIMASTAT]

pIC50 [12]: 9.70 | pIC50 [13]: 8.80
SMILES: CCCCCCCCCC[C@@H](CC(=O)NO)C(=O)N[C@H](C(=O)NC)c1ccccc1

pIC50 [14]: 5.32 | pIC50 [15]: 5.19
SMILES: O=C(O)CC[C@@H](NC(=O)Cc1ccc(Br)cc1)C(=O)NCc1ccc([N+](=O)[O-])cc1

Cmax [16]: 284 µM | pIC50 [17]: 7.85
SMILES: Cc1ccc(C#Cc2ccc(S(=O)(=O)N[C@H](C(=O)O)C(C)C)s2)cc1
